# According to PMC10387993, “New pyrimidine-N-β-D-glucosides: synthesis, biological evaluation, and molecular docking investigations” (Turkish Journal of Chemistry, 2023):
# How the values were obtained:
# Assay type in all cases: cell-based
# C6 (Rat brain glioma) = test: cells; details: Rattus norvegicus; for LC50 (concentration giving 50% net cell loss relative to time zero): read-out: LC50; for GI50 / IC50 / IC (total growth inhibition): C6, MTT; for IC50: read-out: IC50; for IC (total growth inhibition): read-out: TGI
# Procedure, shortened: (§1)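 In this MTT proliferation screen, formazan formed over 4 h was read at 560 nm against a 690 nm reference. Each line was tested at least three times, and the IC50 was taken as the concentration inhibiting half of the cells.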
# HT29 = test: cells; details: Homo sapiens; for LC50 (concentration giving 50% net cell loss relative to time zero): HT-29, read-out: LC50; for GI50 / IC50 / IC (total growth inhibition): HT-29, HT29, MTT; for IC50: read-out: IC50; for IC (total growth inhibition): read-out: TGI
# Procedure, shortened: as §1
# Hep3B = test: cells; details: Homo sapiens; for GI50 / IC50 / IC (total growth inhibition): MTT; for IC50: read-out: IC50; for IC (total growth inhibition): read-out: TGI; for LC50 (concentration causing 50% net cell loss relative to time zero): read-out: LC50
# Procedure, shortened: as §1
# MCF7 = test: cells; details: Homo sapiens; for LC50 (concentration causing 50% net cell loss relative to time zero): MCF7, read-out: LC50; for GI50 / IC50 / IC (total growth inhibition): MCF7, MTT; for IC50: read-out: IC50; for IC (total growth inhibition): read-out: TGI
# Procedure, shortened: as §1
# [1] = LDH cytotoxic activity assay, C6; details: rat, C6 glioma cells; for cytotoxicity at 24 h, 25 μg/mL: C6, 25 μg/mL; for cytotoxicity at 24 h, 50 μg/mL: C6, 50 μg/mL; for cytotoxicity at 24 h, 75 μg/mL: C6, 75 μg/mL; for cytotoxicity at 24 h, 100 μg/mL: C6, 100 μg/mL
# Protocol: The cell lines were cultured in a cell medium (Dulbecco’s modified eagle’s or RPMI 1640) enriched with 10% (v/v) fetal bovine serum and 2% (v/v) Penicillin-Streptomycin (10,000 U/mL). First, old medium was removed out of the flask when the cells reached approximately 80% confluence. Next, cells were taken from the flasks surface using trypsin-EDTA solution and then subjected to centrifugation. Following, the cell pellet was suspended with fresh media and was inoculated into wells.
# Approximately 5 × 10^3 cells in 100 μL were placed into 96-well plates as triplicates and treated with 25, 50, 75, and 100 μg/mL concentrations of test compounds at 37 °C with 5% CO2 for 24 h. LDH activity was obtained by determining absorbance at 492–630 nm using a microplate reader.
Compound,GI50 (C6 (Rat brain glioma)) [µg/mL],IC50 (C6 (Rat brain glioma)) [µg/mL],GI50 (HT29) [µg/mL],IC50 (HT29) [µg/mL],GI50 (Hep3B) [µg/mL],IC50 (Hep3B) [µg/mL],GI50 (MCF7) [µg/mL],IC50 (MCF7) [µg/mL],LC50 (concentration giving 50% net cell loss relative to time zero) (C6 (Rat brain glioma)) [µg/mL],IC (total growth inhibition) (C6 (Rat brain glioma)) [µg/mL],LC50 (concentration giving 50% net cell loss relative to time zero) (HT29) [µg/mL],IC (total growth inhibition) (HT29) [µg/mL],IC (total growth inhibition) (Hep3B) [µg/mL],LC50 (concentration causing 50% net cell loss relative to time zero) (Hep3B) [µg/mL],LC50 (concentration causing 50% net cell loss relative to time zero) (MCF7) [µg/mL],IC (total growth inhibition) (MCF7) [µg/mL],"cytotoxicity at 24 h, 25 μg/mL [1] [%]","cytotoxicity at 24 h, 50 μg/mL [1] [%]","cytotoxicity at 24 h, 75 μg/mL [1] [%]","cytotoxicity at 24 h, 100 μg/mL [1] [%]"
"CC(=O)OC[C@H]1O[C@@H](Nc2nc(-c3ccncc3)cc(-c3cccc(C)c3)n2)[C@H](OC(C)=O)[C@@H](OC(C)=O)[C@@H]1OC(C)=O [Compound 15, 2,3,4,6-tetra-O-acetyl-N-[4-(3-methylphenyl)-6-pyridin-4-ylpyrimidin-2-yl]-β-D-glucopyranosylamine]",2.21,11.2,5,> 500,5.55,> 500,4.1,> 500,71.2,6.3,> 500,> 500,> 500,> 500,> 500,> 500,20.4,55,77.1,83.3
"CC(=O)OC[C@H]1O[C@@H](Nc2nc(-c3ccccn3)cc(-c3ccccc3C)n2)[C@H](OC(C)=O)[C@@H](OC(C)=O)[C@@H]1OC(C)=O [Compound 10, 2,3,4,6-tetra-O-acetyl-N-[4-(2-methylphenyl)-6-pyridin-2-ylpyrimidin-2-yl]-β-D-glucopyranosylamine]",2.21,21.9,2.1,71.1,7.53,> 500,1.66,> 500,486,9.19,> 500,> 500,> 500,> 500,> 500,> 500,22.8,54.3,77.1,93.5
"CC(=O)OC[C@H]1O[C@@H](Nc2nc(-c3cccnc3)cc(-c3cccc(C)c3)n2)[C@H](OC(C)=O)[C@@H](OC(C)=O)[C@@H]1OC(C)=O [Compound 14, 2,3,4,6-tetra-O-acetyl-N-[4-(3-methylphenyl)-6-pyridin-3-ylpyrimidin-2-yl]-β-D-glucopyranosylamine]",> 500,> 500,2.28,> 500,4.9,> 500,1.95,> 500,> 500,> 500,> 500,> 500,> 500,> 500,> 500,> 500,18.4,35.3,70.2,86.7
"CC(=O)OC[C@H]1O[C@@H](Nc2nc(-c3cccnc3)cc(-c3ccccc3C)n2)[C@H](OC(C)=O)[C@@H](OC(C)=O)[C@@H]1OC(C)=O [Compound 11, 2,3,4,6-tetra-O-acetyl-N-[4-(2-methylphenyl)-6-pyridin-3-ylpyrimidin-2-yl]-β-D-glucopyranosylamine]",2.1,21.9,2.75,> 500,4.25,> 500,4.46,> 500,578,8.83,> 500,> 500,> 500,> 500,> 500,> 500,26.4,42.2,77,84.8
"CC(=O)OC[C@H]1O[C@@H](Nc2nc(-c3ccncc3)cc(-c3ccccc3C)n2)[C@H](OC(C)=O)[C@@H](OC(C)=O)[C@@H]1OC(C)=O [Compound 12, 2,3,4,6-tetra-O-acetyl-N-[4-(2-methylphenyl)-6-pyridin-4-ylpyrimidin-2-yl]-β-D-glucopyranosylamine]",2.03,13,2.23,298,4.88,> 500,1.22,> 500,139,6.49,> 500,> 500,> 500,> 500,> 500,> 500,21.1,46.7,75.2,87.4

# The next lines start with results.
GI50 (C6 (Rat brain glioma)) [µg/mL],IC50 (C6 (Rat brain glioma)) [µg/mL],GI50 (HT29) [µg/mL],IC50 (HT29) [µg/mL],GI50 (Hep3B) [µg/mL],IC50 (Hep3B) [µg/mL],GI50 (MCF7) [µg/mL],IC50 (MCF7) [µg/mL],Compound,LC50 (concentration giving 50% net cell loss relative to time zero) (C6 (Rat brain glioma)) [µg/mL],IC (total growth inhibition) (C6 (Rat brain glioma)) [µg/mL],LC50 (concentration giving 50% net cell loss relative to time zero) (HT29) [µg/mL],IC (total growth inhibition) (HT29) [µg/mL],IC (total growth inhibition) (Hep3B) [µg/mL],LC50 (concentration causing 50% net cell loss relative to time zero) (Hep3B) [µg/mL],LC50 (concentration causing 50% net cell loss relative to time zero) (MCF7) [µg/mL],IC (total growth inhibition) (MCF7) [µg/mL],"cytotoxicity at 24 h, 25 μg/mL [1] [%]","cytotoxicity at 24 h, 50 μg/mL [1] [%]","cytotoxicity at 24 h, 75 μg/mL [1] [%]","cytotoxicity at 24 h, 100 μg/mL [1] [%]"
4.37,33.5,2.22,78.4,3.83,> 500,2.23,> 500,"Cc1ccccc1-c1cc(-c2ccncc2)nc(N[C@@H]2O[C@H](CO)[C@@H](O)[C@H](O)[C@H]2O)n1 [Compound 3, N-[4-(2-methylphenyl)-6-pyridin-4-ylpyrimidin-2-yl]-β-D-glucopyranosylamine]",252,17.4,> 500,230,> 500,> 500,> 500,> 500,25.3,32.1,74,99.7
6.34,41.2,3.41,198,5.38,> 500,1.81,> 500,"Cc1ccccc1-c1cc(-c2ccccn2)nc(N[C@@H]2O[C@H](CO)[C@@H](O)[C@H](O)[C@H]2O)n1 [Compound 1, N-[4-(2-methylphenyl)-6-pyridin-2-ylpyrimidin-2-yl]-β-D-glucopyranosylamine]",245,24.3,> 500,> 500,> 500,> 500,> 500,> 500,28.7,28.7,72.1,97.8
9.17,49.7,2.46,453,3.85,> 500,1.69,> 500,"Cc1ccccc1-c1cc(-c2cccnc2)nc(N[C@@H]2O[C@H](CO)[C@@H](O)[C@H](O)[C@H]2O)n1 [Compound 2, N-[4-(2-methylphenyl)-6-pyridin-3-ylpyrimidin-2-yl]-β-D-glucopyranosylamine]",217,31.6,> 500,> 500,> 500,> 500,> 500,> 500,30.8,49.8,72.7,99.8
